Assay results as given in ChEMBL document CHEMBL1201862, “PubChem BioAssay data set” (2004).
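Compound exposure: 48 hours, 5 concentrations, 96-well plates. GI50 is the concentration that inhibits growth by half.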 The source made the active and inactive calls. No stated cut-off is given here; in the data, active = GI50 up to about 1.1 µM and inactive = higher.

Tests used:
Assay in all cases: NCI tumour cell line growth inhibition, 48 h
[1] = test system: HOP-92
[2] = test system: 786-0
[3] = test system: M14
[4] = test system: ACHN
[5] = test system: MCF7
[6] = test system: RXF 393
[7] = test system: TK-10
[8] = test system: T47D
[9] = test system: MDA-MB-231
[10] = test system: MDA-MB-435
[11] = test system: NCI/ADR-RES
[12] = test system: Hs-578T
[13] = test system: PC-3
[14] = test system: SR
[15] = test system: BT-549
[16] = test system: LOX IMVI

Measured: GI50

COC(=O)c1c(OC(C)=O)ccc2c1c1c(n2Cc2ccccc2)C(=O)c2ccccc2C1=O
inactive: [1] 21.4 µM | [2] 25.6 µM | [3] 22 µM | [4] 30.1 µM | [5] 33.9 µM | [6] 18.8 µM | [7] 33.7 µM | [8] 20 µM | [9] 17.1 µM | [10] 18.7 µM | [11] 24 µM | [12] 19.9 µM | [13] 22.4 µM | [14] 24.9 µM | [15] 23.2 µM

Cc1sc(N)c(S(=O)(=O)c2ccccc2)c1C
inactive: [1] > 100 µM | [2] > 100 µM | [3] > 100 µM | [4] > 100 µM | [5] > 100 µM | [6] > 100 µM | [7] > 100 µM | [8] > 100 µM | [9] > 100 µM | [10] > 100 µM | [11] > 100 µM | [12] > 100 µM | [13] > 100 µM | [14] > 100 µM | [15] > 100 µM

COC(=O)C1=C(C(=O)OC)C(N(C)C)C(C(=O)OC)=C(C(=O)OC)S1
inactive: [2] > 100 µM | [3] > 100 µM | [4] > 100 µM | [5] > 100 µM | [6] > 100 µM | [7] > 100 µM | [8] > 100 µM | [9] > 100 µM | [10] > 100 µM | [11] > 100 µM | [12] > 100 µM | [16] > 100 µM | [13] > 100 µM | [14] > 100 µM | [15] > 100 µM

COc1cc(Nc2nc3ccc(C(F)(F)F)cc3nc2C(=O)O)cc(OC)c1OC
inactive: [2] 27.8 µM | [3] 30 µM | [4] 27.4 µM | [5] 26.2 µM | [6] 25.2 µM | [7] 22.8 µM | [8] 26.8 µM | [9] 19.2 µM | [10] 24.3 µM | [11] 21.3 µM | [12] 16.9 µM | [16] 19.1 µM | [13] 24.4 µM | [14] 34.7 µM | [15] 19.2 µM

COc1ccc2cc(/C=N/NC(=O)Nc3ccccc3)ccc2c1
inactive: [1] > 100 µM | [3] > 100 µM | [5] > 100 µM | [6] > 10 µM | [7] > 100 µM | [8] > 100 µM | [9] 81.3 µM | [10] > 100 µM | [11] > 100 µM | [12] > 100 µM | [16] > 100 µM | [13] > 100 µM | [14] > 100 µM | [15] > 100 µM

O=C(O)c1nc2ccc(C(F)(F)F)cc2[nH]c1=O
inactive: [1] > 100 µM | [3] > 100 µM | [4] > 100 µM | [5] > 100 µM | [6] > 100 µM | [7] > 100 µM | [8] > 100 µM | [9] > 100 µM | [10] > 100 µM | [11] > 100 µM | [12] > 100 µM | [16] > 100 µM | [13] > 100 µM | [14] > 100 µM | [15] > 100 µM

CCCCCCCNC(P(=O)(O)O)P(=O)(O)O
inactive: [1] > 100 µM | [2] > 100 µM | [3] > 100 µM | [4] > 100 µM | [5] > 100 µM | [7] > 100 µM | [8] > 100 µM | [9] > 100 µM | [10] > 100 µM | [11] > 100 µM | [12] 34 µM | [16] > 100 µM | [13] > 100 µM | [14] > 100 µM | [15] > 100 µM
